Like-named read-outs stand apart in the source and are kept apart here.
Experiments:
HepG2 = settings: read-out: IC50 cytotoxic activity, HepG2; HepG2 cell line; cited from earlier work
BEL-7402 = settings: read-out: IC50 cytotoxic activity, BEL-7402; BEL-7402 cell line; cited from earlier work
LmDHFR-TS = molecular target: T1, LmDHFR-TS (Leishmania major, UniProt P07382); assay: LmDHFR-TS enzymatic inhibition assay (spectrophotometric standard DHFR assay); format: biochemical; settings: for SI (selectivity index): HsDHFR versus LmDHFR-TS
T1 construct: made in house
Method: The determination of IC50 values involved analyzing concentration-response curves within the 0.1–128 μM range, employing spectrophotometric monitoring of enzymatic activity in a standard DHFR assay.
(§1) Purification and kinetic characterization of the recombinant LmDHFR-TS protein were performed according to the previously reported procedures, while HsDHFR protein was obtained from the commercial assay kit (CS0340, Merck KGaA, Darmstadt, Germany). […] These tested compounds were available from our in-house compound library.
(§2) The assay was conducted with either LmDHFR-TS or HsDHFR (2.7 nM), bovine serum albumin (BSA, 1 mg/mL), N-[tris(hydroxymethyl)-methyl]-2-aminoethanesulfonic acid (TES) buffer (100 mM, pH 7.0, 150 mM β-mercaptoethanol, 2 mM ethylenediaminetetraacetic acid (EDTA)), and nicotinamide adenine dinucleotide phosphate (NADPH, 100 μM), along with varying concentrations of the test compounds (0.1–128 μM). The reaction was initiated by adding the substrate (7,8-dihydrofolate (H2F), 20 μM) and monitored for 360 s at 340 nm, measuring the oxidation of NADPH to NADP+. This allowed the determination of the initial reaction rate (Vo) through linear regression analysis of the resulting absorbance profile.

HsDHFR = molecular target: T2, HsDHFR (Homo sapiens, UniProt P00374); assay: HsDHFR enzymatic inhibition assay (spectrophotometric standard DHFR assay); format: biochemical
T2 construct: purchased Merck KGaA CS0340
T2 sequence (P00374 1-187): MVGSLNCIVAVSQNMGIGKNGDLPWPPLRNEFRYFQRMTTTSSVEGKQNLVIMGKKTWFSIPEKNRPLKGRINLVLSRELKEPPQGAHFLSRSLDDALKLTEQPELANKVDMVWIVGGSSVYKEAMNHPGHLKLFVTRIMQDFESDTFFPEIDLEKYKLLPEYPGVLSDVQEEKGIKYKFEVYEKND
Method: Following this, we calculated the selectivity index (SI) based on the results obtained from in vitro tests using the recombinant protein of Homo sapiens (Hs) DHFR.
as §1, §2

Leishmania amastigotes = tested on: Leishmania amastigotes; set-up: method as in earlier work; settings: ref 24 (Gouri et al.); read-out: IC50 against Leishmania amastigotes; cited from earlier work
TNBC cells = settings: read-out: IC50, TNBC cells in vitro; FAK inhibitor; proliferation, invasion, migration; cited from earlier work
[1] = HsDHFR 2.7 nM, 0.1–128 μM test range, triplicate, read-out: HsDHFR IC50
[2] = recombinant LmDHFR-TS 2.7 nM, 0.1–128 μM test range, triplicate

T1 sequence (P07382 whole entry): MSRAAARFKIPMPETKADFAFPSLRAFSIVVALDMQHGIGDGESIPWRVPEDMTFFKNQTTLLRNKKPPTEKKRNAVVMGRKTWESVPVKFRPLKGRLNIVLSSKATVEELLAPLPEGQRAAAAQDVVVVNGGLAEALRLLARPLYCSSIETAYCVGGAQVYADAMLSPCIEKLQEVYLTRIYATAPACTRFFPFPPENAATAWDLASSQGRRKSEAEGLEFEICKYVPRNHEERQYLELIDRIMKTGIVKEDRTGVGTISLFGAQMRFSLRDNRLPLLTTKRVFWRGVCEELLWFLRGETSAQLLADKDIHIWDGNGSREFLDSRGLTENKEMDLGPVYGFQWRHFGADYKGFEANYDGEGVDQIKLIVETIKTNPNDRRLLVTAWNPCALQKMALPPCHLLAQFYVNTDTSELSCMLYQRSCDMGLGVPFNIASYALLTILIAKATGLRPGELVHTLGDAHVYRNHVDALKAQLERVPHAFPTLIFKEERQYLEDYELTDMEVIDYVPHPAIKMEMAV

Compound | IC50 (LmDHFR-TS) | IC50 (HsDHFR; [1]) | IC50 (Leishmania amastigotes) | further results
C[C@H]1CCC/C=C/[C@@H]2C[C@H](O)C[C@H]2[C@H](OC(=O)/C=C/c2ccc(N(C)C)cc2)/C=C/C(=O)O1 [brefeldin A 4-O-(4)-dimethylaminocinnamate] | – | – | – | IC50 (HepG2): 0.29 µM; IC50 (BEL-7402): 0.84 µM
COc1cc(C[C@H]2COC(=O)[C@@H]2Cc2cc(OC)c3c(c2)[C@H](CO)[C@@H](c2ccc(O)c(OC)c2)O3)ccc1O [Compound 308, isolappaol A] | 10.1 µM | 44.8 µM | – | –
O=c1cc(-c2ccc(O)c(O)c2)oc2cc(O)cc(O)c12 [luteolin] | – | – | 3.12 µM | –
O=c1c(O)c(-c2ccc(O)c(O)c2)oc2cc(O)cc(O)c12 [quercetin] | – | – | 10.5 µM | –
O=c1cc(-c2ccc(O[C@@H]3O[C@H](CO)[C@@H](O)[C@H](O)[C@H]3O)cc2)oc2cc(O)c([C@@H]3O[C@H](CO)[C@@H](O)[C@H](O)[C@H]3O)c(O)c12 [isovitexin 4′-O-glucoside] | – | 126 µM | – | SI (selectivity index) (LmDHFR-TS): 2.4; LmDHFR-TS IC50 (LmDHFR-TS; [2]): low activity; IC50 (LmDHFR-TS; recombinant LmDHFR-TS 2.7 nM, 0.1–128 μM test range, triplicate, read-out: LmDHFR-TS IC50): 53.2 µM
O=C(O)/C=C/c1ccccc1 [cinnamic acid] | – | – | 0.25 µM | –
COc1ccc([C@@H]2CC(=O)c3c(O)cc(O[C@@H]4O[C@H](CO[C@@H]5O[C@@H](C)[C@H](O)[C@@H](O)[C@H]5O)[C@@H](O)[C@H](O)[C@H]4O)cc3O2)cc1O [Compound 140, hesperidin] | 21.6 µM | – | – | SI (selectivity index) (LmDHFR-TS): 4.0; LmDHFR-TS IC50 (LmDHFR-TS; [2]): low activity; IC50 (HsDHFR): 86.5 µM
COc1ccc(C[C@H]2COC(=O)[C@@H]2Cc2cc(OC)c(O)c(-c3cc(C[C@H]4C(=O)OC[C@@H]4Cc4ccc(OC)c(OC)c4)cc(OC)c3O)c2)cc1OC [Compound 306, diarctigenin] | 6.1 µM | 27.9 µM | – | –
CN(C)CCN(C(=O)/C=C/c1c[nH]c2ccccc12)c1ccccn1 [(E)-N-(2-(dimethylamino)ethyl)-3-(1H-indol-3-yl)-N-(pyridin-2-yl) acrylamide] | – | – | – | IC50 (TNBC cells): 8.37 µM
O=c1cc(-c2ccccc2)oc2cc(O)cc(O)c12 [Compound 69, chrysin] | – | – | 13 µM | –
O=C(/C=C/c1ccc(O)c2c1[C@H](C(=O)O)[C@@H](c1ccc(O)c(O)c1)O2)O[C@H](Cc1ccc(O)c(O)c1)C(=O)O [Compound 237, lithospermic acid] | 7.5 µM | 22.6 µM | – | –
C[C@@H]1O[C@@H](OC[C@H]2O[C@@H](Oc3c(-c4ccc(O)c(O)c4)oc4cc(O)cc(O)c4c3=O)[C@H](O)[C@@H](O)[C@@H]2O)[C@H](O)[C@H](O)[C@H]1O [rutin] | 41.7 µM | 189 µM | – | SI (selectivity index) (LmDHFR-TS): 4.5; LmDHFR-TS IC50 (LmDHFR-TS; [2]): low activity
C=CC(C)(C)c1cc(/C=C/C(=O)c2ccc(O)cc2)c(OC)cc1O [licochalcone A] | – | – | 0.9 µM | –

Reference: article PMC10779987, “Machine-Learning- and Structure-Based Virtual Screening for Selecting Cinnamic Acid Derivatives as Leishmania major DHFR-TS Inhibitors” (Molecules, 2023)
